Source: ChEMBL document CHEMBL1201862, “PubChem BioAssay data set” (2004)
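Following 48 hours of exposure in 96-well plates, responses at five concentrations were used to interpolate endpoints linearly. The concentration for 50% growth inhibition is given as GI50.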 The source made the active and inactive calls. Cut-off read from the data, not from the text of the source: active = GI50 up to about 1.1 µM and inactive = higher.

Legend:
Assay in all cases: DTP human tumour cell line panel, 48 h
[1] = test system: 786-0
[2] = test system: A498
[3] = test system: A549
[4] = test system: ACHN
[5] = test system: BT-549
[6] = test system: CAKI-1
[7] = test system: CCRF-CEM
[8] = test system: COLO 205
[9] = test system: DU-145
[10] = test system: EKVX
[11] = test system: HCC 2998
[12] = test system: HCT-116
[13] = test system: HCT-15
[14] = test system: HL-60
[15] = test system: HOP-92
[16] = test system: HT-29
[17] = test system: Hs-578T
[18] = test system: IGROV-1
[19] = test system: K562
[20] = test system: KM12
[21] = test system: LOX IMVI
[22] = test system: M14
[23] = test system: MCF7
[24] = test system: MDA-MB-231
[25] = test system: MDA-MB-435
[26] = test system: MOLT-4
[27] = test system: Malme-3M
[28] = test system: NCI-H226
[29] = test system: NCI-H23
[30] = test system: NCI-H460
[31] = test system: NCI-H522
[32] = test system: NCI/ADR-RES
[33] = test system: OVCAR-3
[34] = test system: OVCAR-4
[35] = test system: OVCAR-5
[36] = test system: OVCAR-8
[37] = test system: PC-3
[38] = test system: RPMI-8226
[39] = test system: SF-268
[40] = test system: SF-295
[41] = test system: SF-539
[42] = test system: SK-MEL-28
[43] = test system: SK-MEL-2
[44] = test system: SK-MEL-5
[45] = test system: SK-OV-3
[46] = test system: SN12C
[47] = test system: SNB-19
[48] = test system: SNB-75
[49] = test system: SW-620
[50] = test system: T47D
[51] = test system: TK-10
[52] = test system: U-251
[53] = test system: UACC-257
[54] = test system: UACC-62
[55] = test system: UO-31

For `CC1(C)CC(=O)C(CC2C(=O)c3ccccc3C2=O)C(=O)C1C(=O)C(=O)Nc1cccc2ccc(O)cc12` (stereo not given), the GI50 [1] was > 100 µM (inactive), the GI50 [2] was 20.8 µM (inactive) and the GI50 [3] was > 100 µM (inactive). For the same compound, the GI50 [4] was > 100 µM (inactive), the GI50 [5] was 15 µM (inactive) and the GI50 [6] was 34.4 µM (inactive). For the same compound, the GI50 [7] was < 0.01 µM (active), the GI50 [8] was > 100 µM (inactive) and the GI50 [9] was > 100 µM (inactive). For the same compound, the GI50 [10] was 43.9 µM (inactive), the GI50 [11] was > 100 µM (inactive) and the GI50 [12] was > 100 µM (inactive). The GI50 [13] was 59.3 µM, the GI50 [14] was > 100 µM (inactive) and the GI50 [15] was 70.3 µM (inactive). For the same compound, the GI50 [16] was > 100 µM (inactive), the GI50 [17] was 74.6 µM (inactive) and the GI50 [18] was 48.9 µM (inactive). The GI50 [19] was 40.9 µM (inactive), the GI50 [20] was > 100 µM (inactive) and the GI50 [21] was 94.4 µM (inactive). The GI50 [22] was > 100 µM (inactive), the GI50 [23] was 32.2 µM (inactive) and the GI50 [24] was 34 µM (inactive). For the same compound, the GI50 [25] was > 100 µM (inactive), the GI50 [26] was 53.5 µM (inactive) and the GI50 [27] was > 100 µM (inactive). For the same compound, the GI50 [28] was 29 µM (inactive), the GI50 [29] was 67.1 µM (inactive) and the GI50 [30] was > 100 µM (inactive). The GI50 [31] was > 100 µM (inactive), the GI50 [32] was 54.1 µM (inactive) and the GI50 [33] was 48.9 µM (inactive). For the same compound, the GI50 [34] was 88.7 µM (inactive), the GI50 [35] was > 100 µM (inactive) and the GI50 [36] was > 100 µM (inactive). For the same compound, the GI50 [37] was 51.4 µM (inactive), the GI50 [38] was 66.5 µM (inactive) and the GI50 [39] was > 100 µM (inactive). The GI50 [40] was 92.3 µM (inactive), the GI50 [41] was > 100 µM (inactive) and the GI50 [42] was > 100 µM (inactive). The GI50 [43] was > 100 µM (inactive), the GI50 [44] was > 100 µM (inactive) and the GI50 [45] was > 100 µM (inactive). For the same compound, the GI50 [46] was > 100 µM (inactive), the GI50 [47] was > 100 µM (inactive) and the GI50 [48] was 78 µM (inactive). For the same compound, the GI50 [49] was > 100 µM (inactive), the GI50 [50] was 27.4 µM (inactive) and the GI50 [51] was 54 µM (inactive). For the same compound, the GI50 [52] was > 100 µM (inactive), the GI50 [53] was > 100 µM (inactive) and the GI50 [54] was > 100 µM (inactive). The GI50 [55] was 33.8 µM (inactive).
